Source: PMC6736568, “Discovery of Novel Anti-cryptosporidial Activities From Natural Products by in vitro High-Throughput Phenotypic Screening” (Frontiers in Microbiology, 2019)
Like-named read-outs stand apart in the source and are kept apart here. *1 amine or outer side, *2 acyl side, *3 side chain or, on linkers, in order; H or OH if unused. Where a SMILES comes first, the peptide text is derived from it. Bridges are numbered along the chain shown (N, C = ends). Roman numbers before positions name the chains, in order. [ ]: non-standard residue; d: D form. Actinocin(9to1) = Cc1c2oc3c(C)ccc(C(=O)[*:1])c3nc-2c(C(=O)[*:2])c(N)c1=O; NMeV = CN[C@H](C(=O)O)C(C)C; Sar = CNCC(=O)O

How the values were obtained:
Cryptosporidium parvum [1] = assay: qRT-PCR assay of the growth of C. parvum in vitro in HCT-8 host cells (primary and secondary screening, EC50); assay type: cell-based; details: Cryptosporidium parvum; for inhibition at 10 µM / inhibition at 3.3 µM: HCT-8; for inhibition at 10 µM: primary screening at 10 uM, read-out: Inhibition (%); for inhibition at 3.3 µM: secondary screening at 3.3 uM, read-out: % Inhibition (3.3 uM); for EC50: growth of C. parvum in vitro, HCT-8 host cells, 44 h infection
HCT-8 cells = assay: In vitro cytotoxicity MTS assay on host cells; assay type: cell-based, human; details: 41 h
Protocol: The plates were measured for absorbance at 490 nm in 15 min intervals in a SmartReader 96 microplate reader (Accuris, Edison, NJ, United States). Cytotoxicity of a compound was quantified by calculating the half maximal toxic concentration on host cells (TC50). An in vitro safety interval (SI) was calculated by determining the ratio between TC50 and EC50 values (i.e., SI = TC50/EC50).

in vitro = details: for cytotoxicity at 41 h, 10 µM: human
[2] = tested on: cryptosporidial infection; parameters: method as in Lemeteil et al., 1993; details: ref Lemeteil et al., 1993; cited from earlier work
Cryptosporidium parvum [3] = assay: Drug withdrawal assay (qRT-PCR at 44 hpi); assay type: cell-based; details: assayed at 44 hpi, cedrelone 1.0 μM, Deox B 7,4 2.0 μM, baicalein 3.3 μM, PRM 150 μM
Protocol: For drug withdrawal assay, HCT-8 cells were cultured and inoculated with C. parvum oocysts (50,000 oocysts/well) for 3 h. After a medium exchange, individual compounds at EC80 final concentrations were added into wells. Compounds were removed at 22 hpi time point by a medium exchange, and infected cells were allowed to grow up to 44 hpi (3–22 hpi treatment groups). A full course of treatment for each compound was included as control (3–44 hpi treatment groups). Cell lysates were prepared at 44 hpi time point for qRT-PCR.
(§1) In all experiments, negative controls were treated with diluent (0.5% DMSO) for the same durations of corresponding drug treatment groups. All experiments include least three biological replicates for each compound in the in vitro drug treatment assay and two technical replicates for each biological replicate in the qRT-PCR assay.

Cryptosporidium parvum [4] = assay: Effect on different parasite developmental stages in vitro (qRT-PCR); assay type: cell-based; details: cedrelone 1.0 μM, Deox B 7,4 2.0 μM, baicalein 3.3 μM, PRM 150 μM
Protocol: We selected three top hits derived from plants for evaluating their activity against various developmental stages of C. parvum. For evaluating the effect on the parasite invasion (i.e., 0–3 hpi treatment groups), host cell monolayers will be incubated with C. parvum oocysts (10^5 oocysts/well) in 96-well plates together with individual compounds at around EC80 concentrations. For evaluating the effect on various stages of intracellular parasites (i.e., 3–10 hpi, […], 22–44 hpi, and 3–44 hpi treatment groups), host cell monolayers were incubated with C. parvum oocysts (50,000 oocysts/well) for 3 h, followed by the removal of uninvaded parasites by a medium exchange. These time points roughly corresponded to the invasion into host cells (0–3 hpi), the development of first and some second generation of merogony (3–22 hpi) or second generation of merogony and gametogenesis (22–44 hpi). Individual compounds at EC80 final concentrations were added into wells at specified post-infection time points, and plates were incubated for specified durations of post-infection times. Cell lysates were prepared at the end of each treatment for qRT-PCR.
as §1

[5] = mouse, ip; ref MicroSource NatProd Collection note; cited from earlier work
[6] = primary screening at 10 uM, treated vs control

Structure (SMILES) | Hs18S ΔCT (HCT-8 host cells (Hs18S); [6]) | inhibition at 10 µM (Cryptosporidium parvum [1]) [%] | inhibition at 3.3 µM (Cryptosporidium parvum [1]) [%] | EC50 (Cryptosporidium parvum [1]) [µM] | TC50 (HCT-8 cells; HCT-8 cells, MTS) [µM] | cytotoxicity at 10 µM (in vitro) [%] | Hs18S ΔCT (HCT-8 host cells (Hs18S); human, 41 h, 10 μM) | cytotoxicity at 41 h, 10 µM (in vitro) [%] | also measured
Cc1c2oc3c(C)ccc(C(=O)N[C@@H]4C(=O)N[C@H](C(C)C)C(=O)N5CCC[C@H]5C(=O)N(C)CC(=O)N(C)[C@@H](C(C)C)C(=O)O[C@@H]4C)c3nc-2c(C(=O)N[C@@H]2C(=O)N[C@H](C(C)C)C(=O)N3CCC[C@H]3C(=O)N(C)CC(=O)N(C)[C@@H](C(C)C)C(=O)O[C@@H]2C)c(N)c1=O [Dactinomycin, reference compound] (I: T[dV]P[Sar][NMeV] / II: T[dV]P[Sar][NMeV]; ester I:1-I:C, II:1-II:C; linker I:N-II:N via Actinocin(9to1)) | 1.50 | 94.3 | 97 | 0.314 | 2.82 | 64.6 | – | – | –
COc1cccc2c1C(=O)c1c(O)c3c(c(O)c1C2=O)C[C@@](O)(C(C)=O)C[C@@H]3O[C@H]1C[C@H](N)[C@H](O)[C@H](C)O1 [Daunorubicin, reference compound] | – | 76.8 | 71 | 1.49 | – | – | 0.99 | 49.5 | efficacy on cryptosporidial infection in rats [2]: ineffective; TC50 (HCT-8 cells; human): 42.6 µM
CC1(C)C(=O)C=C[C@]2(C)[C@H]3CC[C@@]4(C)[C@H](c5ccoc5)OC(=O)[C@H]5O[C@]54[C@]3(C)C(=O)C[C@@H]12 [Deacetoxy-7-oxogedunin] | 0.39 | 88.7 | 77 | 1.94 | 12.8 | 23.6 | – | – | –
CC1(C)C(=O)C=C[C@]2(C)[C@H]3CC[C@@]4(C)[C@H](c5ccoc5)OC(=O)[C@H]5O[C@]54[C@]3(C)[C@H](O)C[C@@H]12 [Deacetylgedunin] | 0.23 | 91.1 | 56 | 1.77 | 30.9 | 14.8 | – | – | –
COc1ccc2c(c1)OCC(Cc1ccc(OC)c(OC(C)=O)c1)C2=O (stereo not drawn) [Deoxysappanone B 7,3′-dimethyl ether acetate] | – | 87.4 | 71 | 1.19 | >100 | – | 0.24 | 15.5 | –
COc1ccc2c(c1)OC[C@H](Cc1ccc(OC)c(O)c1)C2=O [Deoxysappanone B 7,4′-dimethyl ether] | – | 91.3 | 52 | 0.734 | 64.9 | – | 0.62 | 35.1 | inhibition at 2 µM (Cryptosporidium parvum [3]; full course 3-44 hpi, read-out: 3-44 hpi Inhibition): 73.8%; inhibition at 2 µM (Cryptosporidium parvum [3]; treated 3-22 hpi, compound removed, read-out: 3-22 hpi Inhibition): 61.9%; inhibition at 2 µM (Cryptosporidium parvum [4]; treatment 0-3 hpi (excystation and invasion)): -5.5 ± 7.2%; inhibition at 2 µM (Cryptosporidium parvum [4]; treatment 3-10 hpi): 9.1 ± 10.4%; inhibition at 2 µM (Cryptosporidium parvum [4]; treatment 3-22 hpi, assayed at end of treatment): 18%; inhibition at 2 µM (Cryptosporidium parvum [4]; treatment 3-44 hpi (full course)): 67.2%; inhibition at 2 µM (Cryptosporidium parvum [4]; treatment 22-44 hpi): 22.9 ± 6.8%
CC(C)=CCCC1(C)C=Cc2c(O)c3c(c(CC=C(C)C)c2O1)OC12C(=CC4CC1C(C)(C)OC2(C/C=C(/C)C(=O)O)C4O)C3=O (stereo not drawn) [Dihydrogambogic acid] | -0.60 | 97.7 | 57 | 1.67 | – | -52 | – | – | TC50 (HCT-8 cells; human): 6.31 µM
Cc1cccc2c3c(ccc12)C1=C(C(=O)C3=O)[C@@H](C)CO1 [Dihydrotanshinone I] | – | 87 | 75 | 3.08 | – | – | 0.00 | 0.2 | TC50 (HCT-8 cells; human): 25.0 µM
CC[C@H](C)C(=O)O[C@H]1C[C@@H](C)C=C2C=C[C@H](C)[C@H](CC[C@@H]3C[C@@H](O)CC(=O)O3)[C@H]21 [Lovastatin, reference compound] | – | 85.8 | 58 | 2.41 | >100 | – | 0.60 | 34.1 | –
CO[C@@]12[C@H](COC(N)=O)C3=C(C(=O)C(C)=C(N)C3=O)N1C[C@@H]1N[C@@H]12 [Mitomycin, reference compound] | – | 93.7 | 78 | 0.133 | 13.1 | 60.5 | – | – | Hs18S ΔCT (HCT-8 host cells (Hs18S)): 1.34
COC1=C[C@@H]2[C@@H]3Cc4ccc(OC)c(O)c4[C@]2(CCN3C)CC1=O [SINOMENINE] | -0.78 | -83.5 | – | – | – | -71.8 | – | – | LD50 [5]: 285 mg/kg
Cc1coc2c1C(=O)C(=O)c1c-2ccc2c1CCCC2(C)C [Tanshinone IIA] | 0.08 | 82.7 | 63 | 0.964 | >100 | 5.6 | – | – | –
CC(C)[C@@H]1NC(=O)[C@H](C)OC(=O)[C@@H](C(C)C)NC(=O)[C@@H](C(C)C)OC(=O)[C@H](C(C)C)NC(=O)[C@H](C)OC(=O)[C@@H](C(C)C)NC(=O)[C@@H](C(C)C)OC(=O)[C@H](C(C)C)NC(=O)[C@H](C)OC(=O)[C@@H](C(C)C)NC(=O)[C@@H](C(C)C)OC1=O [Valinomycin, reference compound] | -0.13 | 92.3 | 87 | 0.122 | >50 | -9.2 | – | – | –
